“Also recorded” adds a separate entry of the source.
What was measured:
[1] = test system: 3T3 cells not expressing N-cadherin, N-CAM, or L1 (control cells); assay: Neurite outgrowth of mouse cerebellar neurons on control 3T3 cells (Example 2); assay type: cell-based; conditions: 500 μg/ml
Protocol: Neurons were cultured on monolayers of 3T3 cells transfected with cDNA encoding N-cadherin essentially as described by Doherty and Walsh, Curr. Op. Neurobiol. 4:49-55, 1994; Williams et al., Neuron 13:583-594, 1994; Hall et al., Cell Adhesion and Commun. 3:441-450, 1996; Doherty and Walsh, Mol. Cell. Neurosci. 8:99-111, 1994; Safell et al., Neuron 18:231-242, 1997. Briefly, monolayers of control 3T3 fibroblasts and 3T3 fibroblasts that express N-cadherin were established by overnight culture of 80,000 cells in individual wells of an 8-chamber well tissue culture slide. 3000 cerebellar neurons isolated from post-natal day 3 mouse brains were cultured for 18 hours on the various monolayers in control media (SATO/2%FCS), or media supplemented with various concentrations of the cyclic peptide N-Ac-CHAVC-NH2 (SEQ ID NO:10) or a control peptide without the HAV sequence (N-Ac-CHGVC-NH2 (SEQ ID NO:20)). The cultures were then fixed and stained for GAP43 which specifically binds to the neurons and their neurites. The length of the longest neurite on each GAP43 positive neuron was then measured by computer assisted morphometry.

N-CAM = molecular target: T1, N-CAM (Homo sapiens, UniProt P13591); assay: Neurite outgrowth of mouse cerebellar neurons on 3T3 cells expressing N-CAM (Example 2); assay type: cell-based; conditions: 500 μg/mL
T1 construct: expressed in transfected cells; host or cells: 3T3 cells
T1 sequence (P13591 20-858, species assumed): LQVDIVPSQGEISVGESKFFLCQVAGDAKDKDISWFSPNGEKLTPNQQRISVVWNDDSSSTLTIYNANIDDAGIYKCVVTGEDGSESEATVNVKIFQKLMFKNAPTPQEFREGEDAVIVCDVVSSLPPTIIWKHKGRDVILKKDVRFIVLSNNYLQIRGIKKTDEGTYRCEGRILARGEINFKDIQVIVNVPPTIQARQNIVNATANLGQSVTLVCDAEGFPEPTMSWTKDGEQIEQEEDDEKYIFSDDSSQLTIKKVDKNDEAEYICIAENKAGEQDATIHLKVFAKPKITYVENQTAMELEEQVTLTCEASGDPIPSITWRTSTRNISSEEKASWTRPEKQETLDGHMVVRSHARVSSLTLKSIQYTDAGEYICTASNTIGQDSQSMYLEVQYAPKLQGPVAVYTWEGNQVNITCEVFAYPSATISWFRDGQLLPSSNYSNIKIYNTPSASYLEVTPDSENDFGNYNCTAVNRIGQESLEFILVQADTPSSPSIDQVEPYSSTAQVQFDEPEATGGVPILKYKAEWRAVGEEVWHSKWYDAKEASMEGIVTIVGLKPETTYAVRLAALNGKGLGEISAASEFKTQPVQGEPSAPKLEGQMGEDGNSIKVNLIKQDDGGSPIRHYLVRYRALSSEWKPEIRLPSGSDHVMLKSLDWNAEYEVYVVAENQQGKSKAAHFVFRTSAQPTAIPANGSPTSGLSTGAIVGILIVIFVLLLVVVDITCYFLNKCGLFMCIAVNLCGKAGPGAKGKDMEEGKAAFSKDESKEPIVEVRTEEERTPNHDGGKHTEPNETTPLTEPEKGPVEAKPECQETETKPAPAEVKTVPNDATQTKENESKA

[2] = test system: A1N4 human breast epithelial cells; assay: Disruption of breast epithelial cell adhesion, E-cadherin immunostaining; assay type: cell-based; conditions: 500 μg/mL, 48 hours
Protocol: A1N4 human breast epithelial cells (kindly provided by Martha Stampfer, Lawrence Berkeley Laboratory, Berkeley, Calif.) were plated on glass coverslips and cultured in F12/DME containing 0.5% FCS and 10 ng/mL EGF for 24 hours. Fresh medium containing the cyclic peptides (final concentration 500 μg/mL media) N-Ac-CHAVC-NH2 (SEQ ID NO:10) or N-Ac-CHGVC-NH2 (SEQ ID NO:20) was then added. Following 24 hours of culture in the presence of the peptides, the medium was removed and fresh medium containing the peptides was added. The cells were fixed 24 hours later with cold methanol and stored in phosphate buffered saline (PBS).
Coverslips were blocked for 1 hour in 3% ovalbumin/PBS and incubated for a further 1 hour in the presence of 1 μg/mL mouse anti-E-cadherin antibody (Zymed, Gaithersburg, Md.). Primary and secondary antibodies were diluted in PBS containing 6% normal goat serum. Following incubation in the primary antibody, coverslips were washed 3 times for 5 minutes each in PBS and incubated for 1 hour with goat anti-mouse conjugated to fluorescein (Kiekegard and Perry, South San Francisco, Calif.) diluted 1:100. Following a further wash in PBS (3×5 minutes) coverslips were mounted in Vectashield (Vector Labs, Burlingame, Calif.) and viewed with a Zeiss infinity corrected microscope.

human skin = assay: Human skin permeability, penetration of fluorescent markers, Franz Cell apparatus; conditions: compared to N-Ac-CHGVC-NH2
Protocol: A third cell adhesion assay involves evaluating the effect of a cyclic peptide on permeability of adherent epithelial and/or endothelial cell layers. For example, the effect of permeability on human skin may be evaluated. Such skin may be derived from a natural source or may be synthetic. Human abdominal skin for use in such assays may generally be obtained from humans at autopsy within 24 hours of death. Briefly, a cyclic peptide and a test marker (e.g., the fluorescent markers Oregon Green™ and Rhodamine Green™ Dextran) may be dissolved in a sterile buffer, and the ability of the marker to penetrate through the skin and into a receptor fluid may be measured using a Franz Cell apparatus (Franz, Curr. Prob. Dermatol. 7:58-68, 1978; Franz, J. Invest. Dermatol. 64:190-195, 1975). In general, a modulating agent that enhances the permeability of human skin results in a statistically significant increase in the amount of marker in the receptor compartment after 6-48 hours in the presence of 500 μg/mL modulating agent. This assay evaluates the effect of a modulating agent on E-cadherin mediated cell adhesion.
Abdominal skin from humans at autopsy within 24 hours of death was used in these assays. The effect of N-Ac-CHAVC-NH2 (SEQ ID NO:10) and N-Ac-CHGVC-NH2 (SEQ ID NO:20), used at a concentration of 500 μg/ml or 2.5 mg/ml, on the penetration of two fluorescent markers, Oregon Green 488 (charge −1, MW 386 daltons) and Rhodamine Green 3000 Dextran (no charge, MW 3000 daltons) through human skin was then evaluated utilizing a Franz Cell apparatus (Franz, Curr. Prob. Dermatol. 7:58-68, 1978; Franz, J. Invest. Dermatol. 64:190-195, 1975). The peptides and markers were dissolved in sterile phosphate buffer, pH 7.2, and phosphate buffer was used as the receptor fluid. 150 μl of solution containing 0.2 mg Oregon Green and 1.0 mg Rhodamine Green was used to evaluate 500 μg/ml peptide; 200 μl of solution containing 0.05 mg Oregon Green and 1.250 mg Rhodamine Green was used to evaluate 2.5 mg/ml peptide. The solution was placed on top of the epidermal side of the skin, and the penetration of the markers through the skin was assessed using a fluorescent spectrophotometric method (in a Perkin Elmer 650-105 Fluorescence Spectrophotometer, and comparing the reading to a standard curve) at 6, 12, 24, 36, and 48 hours after the start of the experiment. The fluorescent units were converted to a concentration unit of microgram/5 ml (volume of the receiver compartment) using a standard curve and regression analysis equations. The curve was linear for the concentrations tested for both markers (r^2=1 for OrG and 0.997 for RhG). For each peptide and marker combination, the experiment was performed in triplicate.

effect on neurite outgrowth on 3T3 cells expressing N-CAM (N-CAM): did not inhibit neurite outgrowth
SMILES: CC(=O)N[C@H]1CSSC[C@@H](C(N)=O)NC(=O)[C@H](C(C)C)NC(=O)[C@H](C)NC(=O)[C@H](Cc2c[nH]cn2)NC1=O [N-Ac-CHAVC-NH2, N-Ac-Cys-His-Ala-Val-Cys-NH2]
effect on neurite outgrowth on control 3T3 cells [1]: did not inhibit neurite outgrowth
E-cadherin staining and monolayer of A1N4 cells [2]: reduced E-cadherin staining with a stitched appearance; also recorded: distribution of E-cadherin is non-contiguous
effect on penetration of Oregon Green through the skin, in words (human skin; 500 μg/ml): slightly increased the penetration of Oregon Green
effect on penetration of Rhodamine Green through the skin, in words (human skin; 500 μg/ml): significantly increased
effect on penetration of Oregon Green through the skin, in words (human skin; 2.5 mg/ml): increased the penetration of Oregon Green
effect on penetration of Rhodamine Green through the skin, in words (human skin; 2.5 mg/ml): significantly increased

Reference: patent US20030224978A1, “Compounds and methods for modulating apoptosis” (McGill University, priority 1996, published 2003)
